Experimental data published in ChEMBL document CHEMBL5120921, “Newly Discovered Peptides from the Coral Heliofungia actiniformis Show Structural and Functional Diversity” (J Nat Prod, 2022).
Bridge positions count the residues as written; N and C are the ends. Peptide text beside a SMILES is read from it.

Legend:
Type in all cases: toxicity
[1] = (§1) Cytotoxicity against human 1BR.3.GN cells assessed as cell proliferation at 50 nM measured after 4 days by xCELLigence based analysis relative to control; conditions: 1BR.3.GN cells, time 4 day, read-out: Activity
1BR.3.GN [2] = test: as §1; conditions: 1br.3.gn, 96 h, 0.05 µM, time 4 day
1BR.3.GN [3] = test: Cytotoxicity against human 1BR.3.GN cells assessed as cell proliferation at 1250 nM measured after 4 days by xCELLigence based analysis; conditions: 96 h, 1.25 µM, time 4 day

CC[C@H](C)[C@H](NC(=O)[C@@H]1CSSC[C@@H]2NC(=O)[C@H](Cc3ccccc3)NC(=O)[C@H](CO)NC(=O)[C@H](CCCNC(=N)N)NC(=O)[C@@H]3CSSC[C@H](NC(=O)[C@H](CCCCN)NC(=O)[C@H](CCC(N)=O)NC(=O)[C@H](CC(=O)O)NC(=O)[C@@H]4CCCN4C2=O)C(=O)N[C@@H](CC(C)C)C(=O)N[C@@H](CCCCN)C(=O)N[C@@H](CC(=O)O)C(=O)N[C@@H](CSSC[C@H](N)C(=O)N[C@@H](C)C(=O)N2CCC[C@H]2C(=O)N[C@@H](CCC(=O)O)C(=O)N3)C(=O)NCC(=O)N1)C(=O)O (H-CAPECRSFCPDQKCLKDCGCI-OH; disulfide 1-18, 5-14, 9-20)
viability at 96 h, 0.05 µM [1]: > 15%

H-FNPVGVAFKGNNGKYLSRIHRSGIDYTEFAKDNTD-OH
Activity (1BR.3.GN [2]): Non-Toxic
Activity (1BR.3.GN [3]): Non-Toxic
